Measured values taken from patent publication US20110086759A1, “CHEMICAL COMPOUNDS” (SYNGENTA CROP PROTECTION, INC., priority 2007, published 2011).

What was measured:
Assay type in all cases: in vivo
[1] = test system: Ipomea hederaceae (IPOHE); experiment: Post-emergence biological efficacy, glasshouse pot test; details: Ipomoea hederacea, 312 h; Rate 1,000 g/ha; post-emergence spray; evaluated after 13 days (100=total damage to plant; 0=no damage to plant); read-out: Percentage damage caused to weed species, post-emergence, IPOHE
Outline: (§1)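 Scored 13 days after spraying on a 0 (no damage) to 100 (total damage) scale. Treatment was a post-emergence spray at 1000 or 250 g/ha, from acetone/water 50:50 plus 0.5% Tween 20, onto 8-day-old plants in soil pots. Growth at 24/16° C, 14 h photoperiod, 65% humidity, watered twice daily.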

[2] = test system: Alopecurus myosuroides (ALOMY); experiment: as above; details: 312 h, Rate 1,000 g/ha, post-emergence spray, evaluated after 13 days (100=total damage to plant; 0=no damage to plant), read-out: Percentage damage caused to weed species, post-emergence, ALOMY
Outline: as §1

[3] = test system: Echinochloa crus-galli (ECHCG); experiment: as above; details: 312 h, Rate 1,000 g/ha, post-emergence spray, evaluated after 13 days (100=total damage to plant; 0=no damage to plant), read-out: Percentage damage caused to weed species, post-emergence, ECHCG
Outline: as §1

[4] = test system: Amaranthus retoflexus (AMARE); experiment: as above; details: Amaranthus retroflexus, 312 h; Rate 1,000 g/ha; post-emergence spray; evaluated after 13 days (100=total damage to plant; 0=no damage to plant); read-out: Percentage damage caused to weed species, post-emergence, AMARE
Outline: as §1

Setaria faberi (SETFA) [5] = experiment: as above; details: 312 h, Rate 1,000 g/ha, post-emergence spray, evaluated after 13 days (100=total damage to plant; 0=no damage to plant), read-out: Percentage damage caused to weed species, post-emergence, SETFA
Outline: as §1

Solanum nigrum (SOLNI) [6] = experiment: as above; details: 312 h, Rate 1,000 g/ha, post-emergence spray, evaluated after 13 days (100=total damage to plant; 0=no damage to plant), read-out: Percentage damage caused to weed species, post-emergence, SOLNI
Outline: as §1

[7] = test system: Ipomea hederaceae (IPOHE); experiment: Pre-emergence biological efficacy, glasshouse pot test; details: Ipomoea hederacea, 312 h; pre-emergence, rate 1,000 g/ha, evaluated after 13 days (100=total damage to plant; 0=no damage); read-out: Percentage damage caused to weed species, IPOHE
Outline: (§2)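 Damage was rated on a 0–100 scale 13 days after treatment, with plants kept at 24/16° C, 14 h light and 65% humidity. The pre-emergence spray, at 1000 or 250 g/ha in acetone/water 50:50 with 0.5% Tween 20, was applied one day after sowing.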

[8] = test system: Alopecurus myosuroides (ALOMY); experiment: as above; details: 312 h, pre-emergence, rate 1,000 g/ha, evaluated after 13 days (100=total damage to plant; 0=no damage), read-out: Percentage damage caused to weed species, ALOMY
Outline: as §2

[9] = test system: Echinochloa crus-galli (ECHCG); experiment: as above; details: 312 h, pre-emergence, rate 1,000 g/ha, evaluated after 13 days (100=total damage to plant; 0=no damage), read-out: Percentage damage caused to weed species, ECHCG
Outline: as §2

[10] = test system: Amaranthus retoflexus (AMARE); experiment: as above; details: Amaranthus retroflexus, 312 h; pre-emergence, rate 1,000 g/ha, evaluated after 13 days (100=total damage to plant; 0=no damage); read-out: Percentage damage caused to weed species, AMARE
Outline: as §2

Setaria faberi (SETFA) [11] = experiment: as above; details: 312 h, pre-emergence, rate 1,000 g/ha, evaluated after 13 days (100=total damage to plant; 0=no damage), read-out: Percentage damage caused to weed species, SETFA
Outline: as §2

Solanum nigrum (SOLNI) [12] = experiment: as above; details: 312 h, pre-emergence, rate 1,000 g/ha, evaluated after 13 days (100=total damage to plant; 0=no damage), read-out: Percentage damage caused to weed species, SOLNI
Outline: as §2

SMILES	pest or weed control at 1000 g/ha [1]	pest or weed control at 1000 g/ha [2]	pest or weed control at 1000 g/ha [3]	pest or weed control at 1000 g/ha [4]	pest or weed control at 1000 g/ha (Setaria faberi (SETFA) [5])	pest or weed control at 1000 g/ha (Solanum nigrum (SOLNI) [6])	pest or weed control at 1000 g/ha [7]	pest or weed control at 1000 g/ha [8]	pest or weed control at 1000 g/ha [9]	pest or weed control at 1000 g/ha [10]	pest or weed control at 1000 g/ha (Setaria faberi (SETFA) [11])	pest or weed control at 1000 g/ha (Solanum nigrum (SOLNI) [12])
CCOc1ccc(CN(C)c2nc(C3CC3)nc(C(=O)OC)c2Cl)cc1OCC [Compound 5-114, 5-Chloro-2-cyclopropyl-4-[N-(3,4-diethoxy-phenylmethyl)-N-methyl-amino]-6-methoxycarbonyl-pyrimidine]	70%	10%	20%	100%	40%	80%	40%	0%	0%	70%	20%	20%
COC(=O)c1nc(C2CC2)nc(N(C)Cc2ccco2)c1Cl [Compound 5-125, 5-Chloro-2-cyclopropyl-4-(N-furan-2-ylmethyl-N-methyl-amino)-6-methoxycarbonyl-pyrimidine]	100%	50%	60%	100%	80%	90%	100%	40%	70%	100%	80%	90%
COC(=O)c1nc(C2CC2)nc(N(C)Cc2ccc(C)o2)c1Cl [Compound 5-135, 5-Chloro-2-cyclopropyl-6-methoxycarbonyl-4-[N-methyl-N-(5-methylfuran-2-ylmethyl)-amino]-pyrimidine]	100%	30%	40%	100%	80%	90%	100%	30%	0%	100%	10%	90%
COC(=O)c1nc(C2CC2)nc(N(C)Cc2nonc2C)c1Cl [Compound 5-149, 5-Chloro-2-cyclopropyl-6-methoxycarbonyl-4-[N-methyl-N-(4-methyl-1,2,5-oxadiazol-3-ylmethyl)-amino]-pyrimidine]	90%	40%	40%	100%	80%	90%	80%	30%	20%	80%	10%	40%
COC(=O)c1nc(C2CC2)nc(N(C)Cc2cccnc2)c1Cl [Compound 5-156, 5-Chloro-2-cyclopropyl-6-methoxycarbonyl-4-(N-methyl-N-pyridin-3-ylmethyl-amino)pyrimidine]	80%	30%	20%	100%	60%	80%	60%	10%	0%	90%	0%	20%
COC(=O)c1nc(C2CC2)nc(N(C)Cc2ccncc2)c1Cl [Compound 5-160, 5-Chloro-2-cyclopropyl-6-methoxycarbonyl-4-(N-methyl-N-pyridin-4-ylmethyl-amino)pyrimidine]	100%	20%	0%	100%	60%	80%	70%	0%	20%	80%	0%	40%
COC(=O)c1nc(C2CC2)nc(N(C)CCc2ccccc2)c1Cl [Compound 5-221, 5-Chloro-2-cyclopropyl-6-methoxycarbonyl-4-[(N-methyl)-N-(2-phenylethyl)-amino]pyrimidine]	100%	10%	30%	100%	40%	80%	40%	0%	0%	30%	0%	30%
COC(=O)c1nc(C2CC2)nc(N(C)CCc2ccccn2)c1Cl [Compound 5-228, 5-Chloro-2-cyclopropyl-6-methoxycarbonyl-4-[N-methyl-N-(2-pyrid-2-ylethyl)-amino]pyrimidine]	90%	20%	30%	100%	40%	70%	0%	0%	0%	80%	0%	70%
COC(=O)c1nc(C2CC2)nc(N(C)CC(O)c2ccccc2)c1Cl (stereo not drawn) [Compound 5-257, 5-Chloro-2-cyclopropyl-4-[N-(2-hydroxy-2-phenyl-ethyl)-N-methyl-amino]-6-methoxy-carbonylpyrimidine]	80%	20%	30%	100%	50%	80%	50%	10%	30%	100%	10%	100%
COC(=O)c1nc(C2CC2)nc(N(C)C(C)C(O)c2ccccc2)c1Cl (stereo not drawn) [Compound 5-270, 5-Chloro-2-cyclopropyl-4-[N-(2-hydroxy-1-methyl-2-phenyl-ethyl)-N-methyl-amino]-6-methoxycarbonyl-pyrimidine]	90%	10%	0%	90%	30%	80%	20%	10%	0%	90%	0%	50%
CCN(c1nc(C2CC2)nc(C(=O)OC)c1Cl)C1CCCCC1 [Compound 6-35, 5-Chloro-4-(N-cyclohexyl-N-ethyl-amino)-2-cyclo-propyl-6-methoxy-carbonylpyrimidine]	80%	0%	0%	70%	40%	70%	30%	10%	0%	100%	0%	60%
